Columns and labels:
Rat Hepatocytes = assay: Inhibition of Glucose Production and Elevation of Fructose-1,6-Bisphosphate Levels in Rat Hepatocytes; type: cell-based
Method: Hepatocytes were prepared from fed Sprague-Dawley rats (250-300 g) according to the procedure of Berry and Friend (Berry, M.N., Friend, D.S., 1969, J. Cell. Biol. 43, 506-520) as modified by Groen (Groen, A.K., Sips, H.J., Vervoom, R.C., Tager, J.M. , 1982, Eur. J. Biochem. 122, 87-93). Hepatocytes (75 mg wet weight/ml) were incubated in 1 ml Krebs-bicarbonate buffer containing 10 mM Lactate, 1 mM pyruvate, 1 mg/ml BSA, and test compound concentrations from 0 to 500 µM. Incubations were carried out in a 95% oxygen, 5% carbon dioxide atmosphere in closed, 50-ml Falcon tubes submerged in a rapidly shaking water bath (37°C). After 1 hour, an aliquot (0.25 ml) was removed, transferred to an Eppendorf tube and centrifuged. 50 µl of supernatant was then assayed for glucose content using a Sigma Glucose Oxidase kit as per the manufacturer's instructions.
Rat hepatocytes were isolated and incubated as described in Example C. Cell extracts, were analyzed for glucose content as described in Example C, and also for fructose 1,6-bisphosphate. Fructose 1,6-bisphosphate was assayed spectrophotometrically by coupling its enzymatic conversion to glycerol 3-phosphate to the oxidation of NADH, which was monitored at 340 nm. […] After a 30 minute preincubation at 37°C, 1 unit/mi of aldolase was added and the change in absorbance measured until a stable value was obtained. […]

[1] = Hepatic and plasma drug metabolite levels after Compound A p.o. in rats; type: in vivo, SpragueDawley rats; details: after Compound A 250 mg/kg by oral gavage; 8 hours sampling
Method: Compound A was administered by oral gavage to freely-feeding SpragueDawley rats (250-300g). The compound was prepared as a suspension in carboxymethylcellulose, and administered at a dose of 250 mg/kg. For the determination of liver metabolites, rats were serially sacrificed over the course of 24 hours after drug administration. Livers were freeze-clamped, homogenized in perchloric acid, neutralized, and then analyzed for Compound B by anion exchange HPLC.
For the determination of plasma metabolites, rats were instrumented with carotid catheters prior to oral dosing. Blood samples were withdrawn via the catheters at appropriate time points over the course of 8 hours post drug administration. Plasma was prepared from the blood samples by centrifugation, and plasma protein precipitated by the addition of methanol to 60%. Compound A metabolites were quantitated by reverse phase HPLC in the deproteinated plasma samples. A C18 column (1.4 cm X 250 mm) was equilibrated with 10 mM sodium phosphate, pH 5.5 and eluted with a gradient from this buffer to acetonitrile. Detection was at 254 nm.

ZDF rat [2] = assay: Combination treatment with Troglitazone and Compound G or Compound J in the ZDF rat - blood glucose; type: in vivo, Zucker Diabetic Fatty (ZDF) rat; details: for Blood Glucose, Day 0: baseline
Method: At 11 weeks of age, animals with blood glucose >500 mg/dl were selected and divided into 4 treatment groups (n=8/group). […] Blood glucose levels were measured in tail vein samples by means of a HemoCue glucose analyzer (HemoCue Inc., Mission Viejo, CA). Values are expressed as the mean plus or minus the standard error of the mean. Differences between groups were evaluated by analysis of variance with the Tukey-Kramer post hoc test.

type 2 diabetics = details: clinic; cited from earlier work
db/db Mouse = assay: Combination treatment with Troglitazone and Compound G in the db/db mouse - blood glucose; details: db/db mice, baseline
Method: Male db/db mice were purchased at 8 weeks of age from Jackson Labs (Bar Harbor, Maine). […] At 10 weeks of age, animals with blood glucose >400 mg/dl and <900 mg/dl were selected and divided into 4 treatment groups (n=5-6/group). […] Treatment was for 18 days. […] Blood glucose levels were measured in tail vein samples by means of a HemoCue glucose analyzer (HemoCue Inc., Mission Viejo, CA). Values are expressed as the mean plus or minus the standard error of the mean. Differences between groups were evaluated by analysis of variance with the Tukey-Kramer post hoc test. Results are considered significant with p<0.05.

ZDF rat [3] = details: in vivo
Method: At 11 weeks of age, animals with blood glucose >500 mg/dl were selected and divided into 4 treatment groups (n=8/group). […] Values are expressed as the mean plus or minus the standard error of the mean. Differences between groups were evaluated by analysis of variance with the Tukey-Kramer post hoc test.
Plasma was prepared by centrifugation and triglyceride levels then measured by means of a standard assay kit according to the instructions of the manufacturer (Sigma Chemical Company). Differences between groups were evaluated by analysis of variance with the Tukey-Kramer post hoc test. Results are considered significant with p<0.05.

[4] = Oral Bioavailability Determination (urinary excretion method); type: in vivo, Sprague Dawley rats; details: rat, oral 10-40 mg/kg vs intravenous parent, 24 hours urine
Method: The oral bioavailability of prodrugs and parent compounds was determined by the urinary excretion method in the rat. Prodrugs were dissolved in 10% ethanol/90% polyethylene glycol (mw 400) and administered by oral gavage at doses of 10 to 40 mg/kg parent compound equivalents to 6-hour fasted, Sprague Dawley rats (220-240 g). Parent compounds were typically dissolved in deionized water, neutralized with sodium hydroxide, and then administered orally at 10-40 mg/kg or intravenously at ~10 mg/kg. The rats were subsequently placed in metabolic cages and urine was collected for 24 hours. The quantity of parent compound excreted into urine was determined by HPLC analysis as described in Example F. Analysis was performed as described in Example F. For prodrugs, the percentage oral bioavailability was estimated by comparison of the recovery in urine of the parent compound generated from the prodrug administered orally, to that recovered in urine following intravenous administration of the corresponding parent compound. For parent compounds, the percentage oral bioavailability was estimated by comparison of the recovery in urine of the parent compound when administered orally to that recovered when administered intravenously.

[5] = Troglitazone-Compound J study, Troglitazone 0.2%, Compound J 0.4%

CCc1cc(F)c(N)c2nc(-c3ccc(P(=O)(O)O)o3)n(CC(C)C)c12 [Compound E]
intracellular fructose 1,6-bisphosphate (Rat Hepatocytes): dose-dependent elevation

NC(=O)c1ncn([C@@H]2O[C@H](CO)[C@@H](O)[C@H]2O)c1Br [5-bromo-1-βD-ribofuranosyl-imidazole-carboxamide]
detection in plasma [1]: detectable

Cc1c(C)c2c(c(C)c1O)CCC(C)(COc1ccc(CC3SC(=O)NC3=O)cc1)O2 (stereo not shown) [Troglitazone]
Blood Glucose, Day 0 (ZDF rat [2]; Troglitazone-Compound G study, 0.2% food admixtures): 655 ± 33 mg/dL | hepatotoxicity, elevation of liver enzymes (type 2 diabetics): 1 % of patients | Blood Glucose, Day 0 (db/db Mouse): 710 ± 44 mg/dL

CCOC(=O)[C@H](C)NP(=O)(N[C@@H](C)C(=O)OCC)c1ccc(-c2nc(N)sc2CC(C)C)o1 [Compound J, 2-Amino-5-isobutyl-4-{2-[5-(N,N'-bis((S)-1-ethoxycarbonyl)ethyl)phosphonamido]furanyl}thiazole]
Blood Glucose, Day 0 (ZDF rat [2]; [5]): 674 ± 20 mg/dL | Blood Glucose, Day 21 (ZDF rat [2]; [5]): 452 ± 40 mg/dL | blood glucose lowering, pilot studies (ZDF rat [2]; ZDF rat, food admixture dose finding): trend (not significant) towards more pronounced blood glucose lowering at 0.4% than at 0.2% | elevation of plasma triglycerides (ZDF rat [3]): ~2 fold

CSc1nc(-c2ccc(P(=O)(O)O)o2)c(CC(C)C)s1 [Compound H, 2-Methylthio-5-isobutyl-4-[2-(5-phosphono)furanyl]thiazole]
Oral bioavailability, % [4]: 4%
